Assay results from PubChem BioAssay (NCI).
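A five-concentration, 48-hour dose response in 96-well plates underlies each endpoint, interpolated linearly between surrounding concentrations. At the TGI there is no net growth.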

Experiments:
Assay in all cases: NCI tumour cell line growth inhibition, 48 h
[1] = test system: HOP-92 NSCLC
[2] = test system: EKVX NSCLC
[3] = test system: IGROV1 ovarian
[4] = test system: TK-10 renal
[5] = test system: MDA-N
[6] = test system: UACC-62 melanoma
[7] = test system: OVCAR-5 ovarian
[8] = test system: DU-145 prostate
[9] = test system: SNB-19 CNS
[10] = test system: 786-0 renal
[11] = test system: SN12C renal
[12] = test system: NCI-H23 lung
[13] = test system: NCI-H522 lung
[14] = test system: KM12 colon
[15] = test system: A498 renal
[16] = test system: HCT-116 colon
[17] = test system: K-562 leukemia
[18] = test system: NCI/ADR-RES ovarian
[19] = test system: HCT-15 colon
[20] = test system: A549 NSCLC

SMILES	TGI [1] [µM]	TGI [2] [µM]	TGI [3] [µM]	TGI [4] [µM]	TGI [5] [µM]	TGI [6] [µM]	TGI [7] [µM]	TGI [8] [µM]	TGI [9] [µM]	TGI [10] [µM]	TGI [11] [µM]	TGI [12] [µM]	TGI [13] [µM]	TGI [14] [µM]	TGI [15] [µM]	TGI [16] [µM]	TGI [17] [µM]	TGI [18] [µM]	TGI [19] [µM]	TGI [20] [µM]
CC(C)(C)OC(=O)N(O)[C@@H]1C=C[C@H](n2cnc3c(N)ncnc32)C1	> 100	> 100	> 100	> 100	> 100	> 100	> 100	> 100	> 100	> 100	> 100	> 100	> 100	> 100	> 100	> 100	> 100	> 100	> 100	> 100
CC(=O)OC1CCN(C(=O)c2ccccc2)CC1CC1(c2cc3ccccc3[nH]2)OCCO1 (centres undefined)	> 100	> 100	> 100	> 100	> 100	> 100	> 100	> 100	> 100	> 100	> 100	> 100	> 100	> 100	96.2	> 100	> 100	> 100	> 100	> 100
CN(NC(=O)c1ccco1)C1=NCCN1	> 100	> 100	> 100	> 100	> 100	> 100	> 100	> 100	> 100	> 100	> 100	> 100	> 100	> 100	> 100	> 100	> 100	> 100	> 100	> 100
COC(=O)[C@@H]1CN(C(=O)c2ccccc2)C(=O)N1	> 100	> 100	> 100	> 100	> 100	> 100	> 100	> 100	> 100	> 100	> 100	> 100	> 100	> 100	> 100	> 100	> 100	> 100	–	> 100
OCC(CN1CCCCC1)(CN1CCCCC1)CN1CCCCC1	> 100	> 100	> 100	> 100	> 100	> 100	> 100	> 100	> 100	> 100	> 100	> 100	> 100	> 100	> 100	> 100	> 100	> 100	> 100	> 100
O=C1/C(=C\c2ccc(Cl)cc2Cl)Sc2scc(-c3cccc([N+](=O)[O-])c3)[n+]21	18.3	14.3	22.5	13.3	16.7	21.6	34.4	29	32.5	12.3	18.4	31.5	4.32	26.7	> 100	17.8	> 100	41.9	4.87	42.3
